Data as given in article PMC6934184, “Selective DNA-PKcs inhibition extends the therapeutic index of localized radiotherapy and chemotherapy” (The Journal of Clinical Investigation, 2019).

Molecular target: T1, CAMKK2 (CaMKK beta) (Homo sapiens, UniProt Q96RR4)
T1 construct: purchased Thermo Fisher Scientific (Life Technologies) SelectScreen
Test: SelectScreen LanthaScreen
Assay type: binding
Settings: read-out: % displacement
How it was run: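 NU5455 was profiled across the SelectScreen Broad panel of kinase activity and binding assays. Z'LYTE reactions such as CSF1R ran at apparent Km ATP, while the Adapta CAMK1 assay used ATP listed as 10. Values are given as percent.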

T1 sequence (Q96RR4 whole entry): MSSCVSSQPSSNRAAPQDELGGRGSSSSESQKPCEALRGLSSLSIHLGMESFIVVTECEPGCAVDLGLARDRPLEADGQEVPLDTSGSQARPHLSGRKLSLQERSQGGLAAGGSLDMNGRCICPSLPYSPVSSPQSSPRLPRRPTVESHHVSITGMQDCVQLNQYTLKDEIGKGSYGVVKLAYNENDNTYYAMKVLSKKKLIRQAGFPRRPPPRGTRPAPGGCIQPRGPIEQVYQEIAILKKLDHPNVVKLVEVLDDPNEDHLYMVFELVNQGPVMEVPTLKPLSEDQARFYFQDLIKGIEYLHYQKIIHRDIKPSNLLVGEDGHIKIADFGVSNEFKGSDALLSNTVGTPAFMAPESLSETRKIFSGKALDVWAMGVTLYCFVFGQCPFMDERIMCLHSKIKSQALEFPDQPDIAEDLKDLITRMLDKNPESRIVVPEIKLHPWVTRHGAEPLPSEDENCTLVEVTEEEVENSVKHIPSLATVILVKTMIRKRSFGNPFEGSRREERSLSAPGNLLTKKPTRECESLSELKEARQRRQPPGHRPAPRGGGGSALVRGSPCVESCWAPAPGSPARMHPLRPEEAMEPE

CN(C(=O)CN1CCOCC1)c1ccc2sc3c(-c4cccc5c(=O)cc(N6CC7CCC(C6)O7)oc45)cccc3c2c1 [NU5455]
inhibition at 1 µM: 0.9%
